Test results: patent US8937072B2, “Substituted cyanoaniline compounds, preparation and use thereof” (Sinochem Corporation, priority 2011, dated 2015)
Where “and” joins values, the source holds several entries; their conditions need not be identical. Identical values can stand only once.

Legend:
cucumber downy mildew = test: Protectant activity in vivo (whole plant) against cucumber downy mildew
Experimental: (§1) The method is as followed: The whole plant is used in this test. The compound is dissolved in a proper solvent to get mother solution. The proper solvent is selected from acetone, methanol, DMF and so on according to their dissolving capability to the sample. The volume rate of solvent and testing solution (v/v) is equal to or less than 5%. The mother solution is diluted with water containing 0.1% tween-80 to get the testing solution whose concentration is designed. The testing solution is sprayed to the host plant by a special plant sprayer. The plant is inoculated with fungus after 24 hours. According to the infecting characteristic of fungus, the plant is stored in a humidity chamber and then transferred into greenhouse after infection is finished. And the other plants are placed in greenhouse directly. The activity of compound is obtained by eyeballing after 7 days in common.

corn rust = test: Protectant activity in vivo (whole plant) against corn rust; conditions: dose 400 mg/L
Experimental: as §1

| Compound | protectant activity against cucumber downy mildew in vivo (cucumber downy mildew; dose 400 mg/L) | other results |
| --- | --- | --- |
| N#Cc1c(F)c(F)c(C#N)c(Nc2cc([N+](=O)[O-])ccc2Cl)c1F [Compound C-81] | 100% | – |
| N#Cc1c(Cl)c(Cl)c(Nc2c(Br)cc([N+](=O)[O-])cc2Br)c(Cl)c1C#N [Compound A-45] | 100% | protectant activity against cucumber downy mildew in vivo (cucumber downy mildew; dose 25 mg/L): 100%; protectant activity against cucumber downy mildew in vivo (cucumber downy mildew; dose 50 mg/L): 100%; protectant activity against cucumber downy mildew in vivo (cucumber downy mildew; dose 100 mg/L): 100% |
| N#Cc1c(F)c(F)c(C#N)c(Nc2c(Cl)cncc2Cl)c1F [Compound C-125] | – | protectant activity against corn rust in vivo (corn rust): 100% |
| N#Cc1c(Cl)c(Cl)c(Nc2ccc(F)c(F)c2F)c(Cl)c1C#N [Compound A-41] | 100% | – |
| COc1cc([N+](=O)[O-])ccc1Nc1c(Cl)c(C#N)c(Cl)c(Cl)c1C#N [Compound C-35] | 100% | – |
| N#Cc1cc(C#N)c(Nc2c(Cl)c(C#N)c(Cl)c(Cl)c2C#N)nc1Cl [Compound C-114] | – | protectant activity against corn rust in vivo (corn rust): 100% |
| N#Cc1ccc(Nc2c(Cl)c(Cl)c(C#N)c(Cl)c2C#N)cc1 [Compound B-10] | 100% | – |
| N#Cc1c(Cl)c(Cl)c(C#N)c(Nc2cc([N+](=O)[O-])ccc2Cl)c1Cl [Compound C-29] | – | protectant activity against corn rust in vivo (corn rust): 80% |
| N#Cc1c(Cl)c(Cl)c(Nc2c(Cl)cncc2Cl)c(C#N)c1Cl [Compound B-139] | 100% | the protectant activity (%) against cucumber downy mildew (cucumber downy mildew; 12.5 mg/L): 100%; the protectant activity (%) against cucumber downy mildew (cucumber downy mildew; 25 mg/L): 98%; the protectant activity (%) against cucumber downy mildew (cucumber downy mildew; 50 mg/L): 98%; the protectant activity (%) against cucumber downy mildew (cucumber downy mildew; 100 mg/L): 100%; protectant activity against cucumber downy mildew in vivo (cucumber downy mildew; dose 12.5 mg/L): 98%; protectant activity against cucumber downy mildew in vivo (cucumber downy mildew; dose 50 mg/L): 98%; protectant activity against cucumber downy mildew in vivo (cucumber downy mildew; dose 100 mg/L): 100% |
| N#Cc1c(Cl)c(Cl)c(Nc2ccc(Br)cn2)c(Cl)c1C#N [Compound A-79] | 100% | protectant activity against cucumber downy mildew in vivo (cucumber downy mildew; dose 100 mg/L): 100% |
| N#Cc1ccc(Nc2c(Cl)c(C#N)c(Cl)c(Cl)c2C#N)cc1 [Compound C-12] | 100% | – |
| N#Cc1c(F)c(F)c(C#N)c(Nc2c(Cl)cc([N+](=O)[O-])cc2Cl)c1F [Compound C-93] | 100% | – |
| N#Cc1c(F)c(F)c(Nc2c(Cl)cc([N+](=O)[O-])cc2Cl)c(C#N)c1F [Compound B-109] | 100% | protectant activity against cucumber downy mildew in vivo (cucumber downy mildew; dose 50 mg/L): 100%; protectant activity against cucumber downy mildew in vivo (cucumber downy mildew; dose 100 mg/L): 100% |
| Cc1c(Cl)c([N+](=O)[O-])cc([N+](=O)[O-])c1Nc1c(Cl)c(Cl)c(C#N)c(C#N)c1Cl [Compound A-61] | 100% | – |
| N#Cc1c(Cl)c(Cl)c(C#N)c(Nc2ccc(Cl)c(C(F)(F)F)c2)c1Cl [Compound C-39] | – | protectant activity against corn rust in vivo (corn rust): 100% |
| N#Cc1cc([N+](=O)[O-])cc(Br)c1Nc1c(F)c(F)c(C#N)c(F)c1C#N [Compound B-116] | 100% | – |
| CCN(CC)c1c(Cl)c(Nc2ccccc2[N+](=O)[O-])c(C#N)c(Cl)c1C#N [Compound B-70] | – | protectant activity against corn rust in vivo (corn rust): 100% |
| N#Cc1c(Cl)c(Cl)c(C#N)c(Nc2cc(C(F)(F)F)ccc2Cl)c1Cl [Compound C-32] | 100% | – |
| Cc1cccc(Cl)c1Nc1c(Cl)c(Cl)c(C#N)c(Cl)c1C#N [Compound B-23] | 100% | – |
| N#Cc1c(F)c(F)c(Nc2c(Br)cc([N+](=O)[O-])cc2Br)c(C#N)c1F [Compound B-115] | 100% | – |
| N#Cc1c(Cl)c(Cl)c(Nc2ccc(OC(F)(F)F)cc2)c(C#N)c1Cl [Compound B-12] | 100% | – |
| N#Cc1c(Cl)c(Cl)c(Nc2cccc(Cl)c2Cl)c(C#N)c1Cl [Compound B-16] | 100% | – |
| N#Cc1c(Cl)c(Cl)c(C#N)c(Nc2ccc([N+](=O)[O-])cc2Cl)c1Cl [Compound C-28] | 100% | – |
| N#Cc1c(Cl)c(Cl)c(Nc2cc([N+](=O)[O-])ccc2Cl)c(Cl)c1C#N [Compound A-16] | 100% | – |

| Compound | protectant activity against cucumber downy mildew in vivo (cucumber downy mildew; dose 400 mg/L) | other results |
| --- | --- | --- |
| CNC(=O)c1cc(Cl)cc(C)c1Nc1c(Cl)c(C#N)c(Cl)c(Cl)c1C#N [Compound C-56] | 100% | – |
| Cc1ccnc(Nc2c(Cl)c(Cl)c(C#N)c(C#N)c2Cl)c1 [Compound A-80] | 100% | protectant activity against cucumber downy mildew in vivo (cucumber downy mildew; dose 100 mg/L): 100% |
| N#Cc1cc([N+](=O)[O-])cc(Br)c1Nc1c(F)c(C#N)c(F)c(F)c1C#N [Compound C-97] | 100% | – |
| Cc1cc(Cl)ccc1Nc1c(Cl)c(Cl)c(C#N)c(Cl)c1C#N [Compound B-22] | 100% | – |
| CNC(=O)c1cc(Cl)cc(C)c1Nc1c(Cl)c(Cl)c(C#N)c(Cl)c1C#N [Compound B-62b] | 100% | – |
| COC(=O)c1ccc(Nc2c(Cl)c(Cl)c(C#N)c(C#N)c2Cl)cc1 [Compound A-11] | 100% | – |
| COc1cc([N+](=O)[O-])ccc1Nc1c(F)c(C#N)c(F)c(F)c1C#N [Compound C-88] | – | protectant activity against cucumber downy mildew in vivo (cucumber downy mildew; dose 50 mg/L): 98% |
| N#Cc1c(Cl)c(Cl)c(Nc2c(Cl)cc([N+](=O)[O-])cc2Cl)c(Cl)c1C#N [Compound A-44] | 100% | protectant activity against cucumber downy mildew in vivo (cucumber downy mildew; dose 100 mg/L): 100% |
| COC(=O)c1ccc(Nc2c(Cl)c(Cl)c(C#N)c(Cl)c2C#N)cc1 [Compound B-13] | 100% | – |
| N#Cc1c(Cl)c(Cl)c(Nc2ccc([N+](=O)[O-])cc2[N+](=O)[O-])c(C#N)c1Cl [Compound B-37] | 100% | – |
| N#Cc1c(Cl)c(Cl)c(C#N)c(Nc2ccc(OC(F)(F)F)cc2)c1Cl [Compound C-13] | 100% | – |
| N#Cc1ccc(Nc2c(Cl)c(Cl)c(C#N)c(Cl)c2C#N)cc1C(F)(F)F [Compound B-40] | 100% | the protectant activity (%) against cucumber downy mildew (cucumber downy mildew; 12.5 mg/L): 30%; the protectant activity (%) against cucumber downy mildew (cucumber downy mildew; 25 mg/L): 98%; the protectant activity (%) against cucumber downy mildew (cucumber downy mildew; 50 mg/L): 100%; the protectant activity (%) against cucumber downy mildew (cucumber downy mildew; 100 mg/L): 100%; protectant activity against cucumber downy mildew in vivo (cucumber downy mildew; dose 50 mg/L): 100%; protectant activity against cucumber downy mildew in vivo (cucumber downy mildew; dose 100 mg/L): 100% |
| N#Cc1c(Cl)c(Cl)c(C#N)c(Nc2ccc(F)c(F)c2F)c1Cl [Compound C-51] | 100% | – |
| N#Cc1c(F)c(F)c(C#N)c(Nc2c(Br)cc([N+](=O)[O-])cc2Br)c1F [Compound C-96] | – | protectant activity against cucumber downy mildew in vivo (cucumber downy mildew; dose 50 mg/L): 98% |
| N#Cc1ccc(Nc2c(Cl)c(Cl)c(C#N)c(C#N)c2Cl)cc1C(F)(F)F [Compound A-27] | 100% | – |
| N#Cc1c(Cl)c(Cl)c(C#N)c(Nc2ccc(C(F)(F)F)cc2Cl)c1Cl [Compound C-30] | 100% | protectant activity against cucumber downy mildew in vivo (cucumber downy mildew; dose 100 mg/L): 90% |
| N#Cc1c(F)c(F)c(Nc2ccc([N+](=O)[O-])cc2Cl)c(C#N)c1F [Compound B-95] | 100% | – |
| N#Cc1c(F)c(F)c(C#N)c(Nc2ccc([N+](=O)[O-])cc2F)c1F [Compound C-79] | 100% | – |
| N#Cc1c(Cl)c(Cl)c(Nc2ncc(C(F)(F)F)cc2Cl)c(C#N)c1Cl [Compound B-125] | 100% | protectant activity against cucumber downy mildew in vivo (cucumber downy mildew; dose 50 mg/L): 98%; protectant activity against cucumber downy mildew in vivo (cucumber downy mildew; dose 100 mg/L): 100% |
| N#Cc1c(F)c(F)c(C#N)c(Nc2ccc([N+](=O)[O-])cc2)c1F [Compound C-70] | 100% | – |
| N#Cc1c(Cl)c(Cl)c(Nc2ccc(C(F)(F)F)cc2Cl)c(Cl)c1C#N [Compound A-17] | 100% | – |
| N#Cc1c(Cl)c(Cl)c(Nc2ccc([N+](=O)[O-])cc2F)c(Cl)c1C#N [Compound A-14] | 100% | protectant activity against cucumber downy mildew in vivo (cucumber downy mildew; dose 25 mg/L): 100%; protectant activity against cucumber downy mildew in vivo (cucumber downy mildew; dose 50 mg/L): 100%; protectant activity against cucumber downy mildew in vivo (cucumber downy mildew; dose 100 mg/L): 100% |
| Cc1ccc(Nc2c(Cl)c(Cl)c(C#N)c(C#N)c2Cl)nc1 [Compound A-81] | 100% | – |
| N#Cc1ccc(Nc2c(Cl)c(C#N)c(Cl)c(Cl)c2C#N)cc1C(F)(F)F [Compound C-38] | 100% | protectant activity against cucumber downy mildew in vivo (cucumber downy mildew; dose 100 mg/L): 100% and 90% |
